Among the test systems are UACC-257 melanoma; MDA-N; HCT-116 colon; MDA-MB-231 breast; OVCAR-3 ovarian; OVCAR-4 ovarian; OVCAR-5 ovarian; SK-OV-3 ovarian; SNB-19 CNS; HS 578T breast.
Assay in all cases: inhibition of tumour cell growth, NCI panel, 48 h

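These data come from cells grown in 96-well plates and exposed to compound for 48 hours at five concentrations. GI50 is the concentration that inhibits growth by half. TGI: total growth inhibition.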 Where only a bound is given, the exact number is not on record here.

In the case of `NC1(c2cc3ccccc3s2)CCCCCC1`, the TGI came out at 30.1 µM in the experiment on UACC-257 melanoma; 30.4 µM in the experiment with MDA-N; 29.5 µM in the experiment on HCT-116 colon; 29.1 µM in the experiment on MDA-MB-231 breast; 29.2 µM with OVCAR-3 ovarian; 27.7 µM with OVCAR-4 ovarian. The TGI with OVCAR-5 ovarian stood at 28.7 µM; in the experiment with SK-OV-3 ovarian it was 31.2 µM; in the experiment on SNB-19 CNS, 34.8 µM.

Turning to `COP(=O)(CP(=O)(OC)OCCC(C)CCC=C(C)C)OC` (configuration not stated), the TGI in the experiment with UACC-257 melanoma is greater than 100 µM; in the experiment with MDA-N, greater than 100 µM; in the experiment on HCT-116 colon, greater than 100 µM; in the experiment on MDA-MB-231 breast, 44.7 µM; in the experiment on OVCAR-3 ovarian, greater than 100 µM; in the experiment with OVCAR-4 ovarian, greater than 100 µM. Moreover, the TGI with OVCAR-5 ovarian, with SK-OV-3 ovarian and with SNB-19 CNS was greater than 100 µM in each case.

Turning to `COc1ccc(/C(=N/O)c2ccccc2C2=Nc3ccccc3C(NCc3ccccc3)O2)cc1C` (configuration not stated), the TGI is 41.9 µM in the experiment with UACC-257 melanoma; greater than 100 µM with MDA-N; greater than 100 µM in the experiment on HCT-116 colon; greater than 100 µM in the experiment on HS 578T breast; greater than 100 µM in the experiment with MDA-MB-231 breast; greater than 100 µM with OVCAR-3 ovarian. Further, the TGI with OVCAR-5 ovarian is greater than 100 µM; with SK-OV-3 ovarian it was 82.5 µM; in the experiment on SNB-19 CNS, greater than 100 µM.

As to `CCN(CC)/N=C\c1c2ccccc2cc2ccccc12`, the TGI in the experiment on UACC-257 melanoma is 72.4 µM; with MDA-N it was greater than 100 µM; with HCT-116 colon, greater than 100 µM; in the experiment with HS 578T breast, greater than 100 µM; with MDA-MB-231 breast it was greater than 100 µM; in the experiment with OVCAR-4 ovarian, greater than 100 µM. In addition, the TGI with OVCAR-5 ovarian, in the experiment on SK-OV-3 ovarian and in the experiment on SNB-19 CNS was greater than 100 µM in each case.

As to `COc1ccc(NC(=O)CSC(=O)c2ccccc2)c(SCCSSCCSc2cc(OC)ccc2NC(=O)CSC(=O)c2ccccc2)c1`, the TGI is greater than 100 µM with UACC-257 melanoma; greater than 100 µM in the experiment with MDA-N; greater than 100 µM in the experiment on HCT-116 colon; greater than 100 µM in the experiment on HS 578T breast; greater than 100 µM in the experiment on OVCAR-3 ovarian; 83.7 µM in the experiment with OVCAR-4 ovarian. Also, the TGI in the experiment on OVCAR-5 ovarian, in the experiment on SK-OV-3 ovarian and in the experiment on SNB-19 CNS was greater than 100 µM throughout.

With `CCOP(=O)(OCC)/C(=C/n1c(=S)[nH]c2ccccc21)C(=O)OC`, the TGI with UACC-257 melanoma, in the experiment on MDA-N, with HCT-116 colon, in the experiment on HS 578T breast, in the experiment on MDA-MB-231 breast and in the experiment on OVCAR-4 ovarian was greater than 100 µM in each case. Moreover, the TGI with OVCAR-5 ovarian, in the experiment on SK-OV-3 ovarian and in the experiment with SNB-19 CNS was greater than 100 µM throughout. Moreover, the GI50 in the experiment on SNB-19 CNS was greater than 100 µM.

Take `CCCCCCCCCCCC(=O)N(CCCCCCCCC)CC(O)C(O)C(OC1OC(CO)C(O)C(O)C1O)C(O)CO` (configuration not stated): the TGI was 31.4 µM in the experiment with UACC-257 melanoma; 38.4 µM with MDA-N; 32.8 µM with HCT-116 colon; greater than 100 µM in the experiment on HS 578T breast; 43.2 µM with MDA-MB-231 breast; 40.3 µM with OVCAR-3 ovarian. Also, the TGI turned out to be 49.6 µM in the experiment on OVCAR-4 ovarian, 49.3 µM with OVCAR-5 ovarian and 40.4 µM with SNB-19 CNS.

As for `N#Cc1sc2c(c1OC(=O)c1ccco1)c(=O)n(-c1ccccc1)c(=S)n2-c1ccccc1`, the TGI was greater than 100 µM with UACC-257 melanoma; 47.1 µM in the experiment with MDA-N; 41.6 µM in the experiment with HCT-116 colon; greater than 100 µM in the experiment on HS 578T breast; 73.8 µM in the experiment with MDA-MB-231 breast; 75.5 µM with OVCAR-3 ovarian. The TGI is 81.2 µM in the experiment with OVCAR-4 ovarian, greater than 100 µM with SK-OV-3 ovarian and greater than 100 µM with SNB-19 CNS.

As to `CN(C)C(=O)N1N[C@H](c2ccccc2)[C@@H]1c1ccccc1`, the TGI in the experiment with UACC-257 melanoma, with MDA-N, with HCT-116 colon, in the experiment on MDA-MB-231 breast, in the experiment on OVCAR-3 ovarian and with OVCAR-4 ovarian was greater than 100 µM in each case. The TGI in the experiment with SK-OV-3 ovarian and with SNB-19 CNS was greater than 100 µM in each case.

As to `O=C1CCCC1CC(CN1CCOCC1)Sc1nnnn1-c1ccccc1` (configuration not stated), the TGI in the experiment with UACC-257 melanoma, in the experiment on MDA-N, in the experiment on HCT-116 colon, in the experiment on MDA-MB-231 breast, with OVCAR-3 ovarian and with OVCAR-4 ovarian was greater than 100 µM in each case. The TGI in the experiment on OVCAR-5 ovarian, in the experiment on SK-OV-3 ovarian and with SNB-19 CNS was greater than 100 µM each time.

On to `COc1ccc(C2N(c3ccc(C)c(N=C=O)c3)C(=O)N3C(c4ccc(OC)cc4)N(c4ccc(C)c(N=C=O)c4)C(=O)N23)cc1` (configuration not stated), for which the TGI with UACC-257 melanoma, with MDA-N, in the experiment with HCT-116 colon, with MDA-MB-231 breast, in the experiment with OVCAR-3 ovarian and with OVCAR-4 ovarian was greater than 100 µM each time. Also, the TGI in the experiment with OVCAR-5 ovarian and with SNB-19 CNS was greater than 100 µM each time.

Regarding `CCCCCc1cc2cc3c(c(O)c2c(=O)[nH]1)C1(CCC3)C(=O)c2c(O)ccc(O)c2C1=O`, the TGI in the experiment on UACC-257 melanoma, in the experiment with MDA-N, with HCT-116 colon, with HS 578T breast, in the experiment with MDA-MB-231 breast and with OVCAR-3 ovarian was greater than 100 µM in each case. Besides, the TGI with OVCAR-4 ovarian, in the experiment on OVCAR-5 ovarian and in the experiment with SNB-19 CNS was greater than 100 µM in each case.

On to `COC(=O)/C=C1\C(CO[Si](C)(C)C(C)(C)C)OC(n2cc(C)c(=O)n(C)c2=O)C1O[Si](C)(C)C(C)(C)C` (configuration not stated), for which the TGI with MDA-N, in the experiment on HCT-116 colon, with HS 578T breast, with MDA-MB-231 breast, in the experiment with OVCAR-3 ovarian and in the experiment with OVCAR-5 ovarian was greater than 100 µM in each case. For the same compound, the TGI in the experiment with SK-OV-3 ovarian and in the experiment on SNB-19 CNS was greater than 100 µM each time.

Turning to `O=[N+]([O-])c1c(O)c2nonc2c2nn(-c3ccccc3)nc12`, the TGI in the experiment on UACC-257 melanoma, in the experiment with MDA-N, in the experiment on HCT-116 colon, in the experiment with HS 578T breast, in the experiment on OVCAR-3 ovarian and in the experiment on OVCAR-4 ovarian was greater than 100 µM throughout. Further, the TGI with OVCAR-5 ovarian, in the experiment on SK-OV-3 ovarian and in the experiment with SNB-19 CNS was greater than 100 µM each time.

In the case of `Oc1ccc(-c2nc3cc(C(F)(F)F)ccc3s2)cc1`, the TGI in the experiment with UACC-257 melanoma amounted to 32.2 µM; in the experiment with MDA-N, 32.7 µM; in the experiment with HCT-116 colon it was 27.6 µM; in the experiment on MDA-MB-231 breast it was 31 µM; with OVCAR-3 ovarian, 28.3 µM; with OVCAR-5 ovarian, 30.9 µM. In addition, the TGI came to 40.7 µM with SK-OV-3 ovarian and 31.4 µM in the experiment with SNB-19 CNS.
